Reference: patent publication US20160220569A1, “CDK4/6 Inhibitor Dosage Formulations For The Protection Of Hematopoietic Stem And Progenitor Cells During Chemotherapy” (G1 Therapeutics, Inc., priority 2015, published 2016)
Where “and” joins values, the source holds several entries; their conditions need not be identical. Identical values can stand only once. Like-named read-outs stand apart in the source and are kept apart here.

Assay: Single escalating dose IV infusion pharmacokinetics in healthy volunteers (noncompartmental)
Assay type: in vivo, human
Details: for HL_Lambda_z / highest (peak) concentration: individual subjects; for HL_Lambda_z: WinNonlin noncompartmental analysis, in h
Method: Forty-five subjects have enrolled in the study.
Analysis of plasma concentration versus time data for calculation of standard pharmacokinetic (PK) parameters following intravenous infusion administration was conducted using Phoenix WinNonlin version 6.3 using a nominal infusion duration and scheduled blood sampling times. Random subject numbers were assigned by the bioanalytical laboratory to retain the blind.
(§1) Analysis of plasma concentration versus time data for calculation of standard pharmacokinetic (PK) parameters following intravenous infusion administration was conducted using Phoenix WinNonlin version 6.3 using a nominal infusion duration and scheduled blood sampling times.
as §1

[1] = Cohort 2, 12 mg/m^2 IV, r6-8=Subjects 1-3,r10=Mean,r12=Min,r13=Median,r14=Max,r16=Geometric Mean, geometric mean
[2] = Cohort 2, 12 mg/m^2 IV, r6-8=Subjects 1-3,r10=Mean,r12=Min,r13=Median,r14=Max,r16=Geometric Mean, mean
[3] = Cohort 2, 12 mg/m^2 IV, r6-8=Subjects 1-3,r10=Mean,r12=Min,r13=Median,r14=Max,r16=Geometric Mean, median
[4] = Cohort 3, 24 mg/m^2 IV, r6-8=Subjects 1-3,r10=Mean,r12=Min,r13=Median,r14=Max,r16=Geometric Mean, geometric mean
[5] = Cohort 3, 24 mg/m^2 IV, r6-8=Subjects 1-3,r10=Mean,r12=Min,r13=Median,r14=Max,r16=Geometric Mean, maximum
[6] = Cohort 3, 24 mg/m^2 IV, r6-8=Subjects 1-3,r10=Mean,r12=Min,r13=Median,r14=Max,r16=Geometric Mean, mean
[7] = Cohort 3, 24 mg/m^2 IV, r6-8=Subjects 1-3,r10=Mean,r12=Min,r13=Median,r14=Max,r16=Geometric Mean, median
[8] = Cohort 3, 24 mg/m^2 IV, r6-8=Subjects 1-3,r10=Mean,r12=Min,r13=Median,r14=Max,r16=Geometric Mean, minimum
[9] = Cohort 4, 48 mg/m^2 IV, r6-8=Subjects 1-3,r10=Mean,r12=Min,r13=Median,r14=Max,r16=Geometric Mean, geometric mean
[10] = Cohort 4, 48 mg/m^2 IV, r6-8=Subjects 1-3,r10=Mean,r12=Min,r13=Median,r14=Max,r16=Geometric Mean, maximum
[11] = Cohort 4, 48 mg/m^2 IV, r6-8=Subjects 1-3,r10=Mean,r12=Min,r13=Median,r14=Max,r16=Geometric Mean, mean
[12] = Cohort 4, 48 mg/m^2 IV, r6-8=Subjects 1-3,r10=Mean,r12=Min,r13=Median,r14=Max,r16=Geometric Mean, median
[13] = Cohort 4, 48 mg/m^2 IV, r6-8=Subjects 1-3,r10=Mean,r12=Min,r13=Median,r14=Max,r16=Geometric Mean, minimum
[14] = Cohort 5, 96 mg/m^2, 30-minute IV infusion, noncompartmental, subjects 1-6, Mean, Min, Median, Max, Geometric Mean, minimum

CN1CCN(c2ccc(Nc3ncc4cc5n(c4n3)C3(CCCCC3)CNC5=O)nc2)CC1 [Compound 1, 2′-((5-(4-methylpiperazin-1-yl)pyridin-2-yl)amino)-7′,8′-dihydro-6′H-spiro[cyclohexane-1,9′-pyrazino[1′,2′:1,5]pyrrolo[2,3-d]pyrimidin]-6′-one]
HL_Lambda_z (Cohort 1, 6 mg/m^2): 6.358 and 3.5207 and 4.7366 | highest (peak) concentration (Cohort 1, 6 mg/m^2 IV): 42.7 ng/mL and 42.9 ng/mL and 60.5 ng/mL | Clearance (CL) (Cohort 1, 6 mg/m^2 IV, mean): 91.4 L/h/m^2 | volume of distribution at steady state (Vss) averaging (Cohort 1, 6 mg/m^2 IV, mean): 358 L/m^2 | HL_Lambda_z (Cohort 2, 12 mg/m^2): 7.5562 and 8.8853 | highest (peak) concentration (Cohort 2, 12 mg/m^2 IV): 87.4 ng/mL and 136 ng/mL | Clearance (CL) (Cohort 2, 12 mg/m^2 IV, mean): 83.5 L/h/m^2 | volume of distribution at steady state (Vss) averaging (Cohort 2, 12 mg/m^2 IV, mean): 461 L/m^2 | AUCinf [1]: 146 ng·h/mL | CL [1]: 82.4 L/h/m^2 | Cmax [1]: 119 ng/mL | MRTinf [1]: 5.51 h | Tmax [1]: 23.8 min | Vss [1]: 454 L/m^2 | λz [1]: 0.0845 h⁻¹ | CL [2]: 83.5 L/h/m^2 | Vss [2]: 461 L/m^2 | λz [2]: 0.0847 h⁻¹ | AUCinf [3]: 136 ng·h/mL | CL [3]: 88.4 L/h/m^2 | Cmax [3]: 136 ng/mL | MRTinf [3]: 5.98 h | Vss [3]: 405 L/m^2 | λz [3]: 0.0844 h⁻¹ | HL_Lambda_z (Cohort 3, 24 mg/m^2): 13.1458 and 8.6328 and 7.8478 | Clearance (CL) (Cohort 3, 24 mg/m^2 IV, mean): 90.7 L/h/m^2 | volume of distribution at steady state (Vss) averaging (Cohort 3, 24 mg/m^2 IV, mean): 562 L/m^2 | AUClast [4]: 253 ng·h/mL | Vss [4]: 550 L/m^2 | λz [4]: 0.0720 h⁻¹ | AUClast [5]: 337 ng·h/mL | Vss [5]: 674 L/m^2 | λz [5]: 0.0883 h⁻¹ | Vss [6]: 562 L/m^2 | λz [6]: 0.0738 h⁻¹ | AUClast [7]: 259 ng·h/mL | Vss [7]: 599 L/m^2 | λz [7]: 0.0803 h⁻¹ | AUClast [8]: 186 ng·h/mL | Vss [8]: 412 L/m^2 | λz [8]: 0.0527 h⁻¹ | HL_Lambda_z (Cohort 4, 48 mg/m^2): 10.9028 and 7.2383 and 8.5525 | Clearance (CL) (Cohort 4, 48 mg/m^2 IV, mean): 96.5 L/h/m^2 | volume of distribution at steady state (Vss) averaging (Cohort 4, 48 mg/m^2 IV, mean): 771 L/m^2 | Tmax (Cohort 4, 48 mg/m^2 IV, r6-8=Subjects 1-3,r10=Mean,r12=Min,r13=Median,r14=Max,r16=Geometric Mean): 15 min | AUCinf [9]: 498 ng·h/mL | AUClast [9]: 452 ng·h/mL | CL [9]: 96.4 L/h/m^2 | MRTinf [9]: 7.83 h | Tmax [9]: 23.8 min | Vss [9]: 754 L/m^2 | λz [9]: 0.0790 h⁻¹ | AUCinf [10]: 524 ng·h/mL | AUClast [10]: 480 ng·h/mL | CL [10]: 105 L/h/m^2 | Cmax [10]: 228 ng/mL | MRTinf [10]: 10.7 h | Vss [10]: 995 L/m^2 | λz [10]: 0.0958 h⁻¹ | CL [11]: 96.5 L/h/m^2 | Vss [11]: 771 L/m^2 | λz [11]: 0.0801 h⁻¹ | AUCinf [12]: 514 ng·h/mL | AUClast [12]: 441 ng·h/mL | CL [12]: 93.3 L/h/m^2 | Cmax [12]: 227 ng/mL | MRTinf [12]: 7.80 h | Vss [12]: 715 L/m^2 | λz [12]: 0.0810 h⁻¹ | AUCinf [13]: 459 ng·h/mL | AUClast [13]: 437 ng·h/mL | CL [13]: 91.7 L/h/m^2 | MRTinf [13]: 5.76 h | Tmax [13]: 15 min | Vss [13]: 603 L/m^2 | λz [13]: 0.0636 h⁻¹ | AUClast (Cohort 5, 96 mg/m^2, 30-minute IV infusion, noncompartmental, subjects 1-6, Mean, Min, Median, Max, Geometric Mean, mean): 1240 ng·h/mL | AUClast [14]: 1040 ng·h/mL | Tmax [14]: 15 min | maximum mean concentration (Cohort 5, 96 mg/m^2 IV, at the end of infusion (EOI)): 874 ng/mL | Clearance (CL) (Cohort 5, 96 mg/m^2 IV, mean): 74 L/h/m^2 | volume of distribution at steady state (Vss) averaging (Cohort 5, 96 mg/m^2 IV, mean): 429 L/m^2 | HL_Lambda_z (Cohort 5, received 96 mg/m^2): 8.4971 and 10.9427 and 7.5378 and 10.6557 and 7.1128 and 6.9746 | Clearance (CL) (Cohort 6, […]^2 IV, mean): 62.1 L/h/m^2 | volume of distribution at steady state (Vss) averaging (Cohort 6, […]^2 IV, mean): 547 L/m^2 | AUC(0-inf) (both sexes, human, plasma, iv, 6 mg/m2, Cohort 1, 6 mg/m^2 IV, mean, read-out: AUCinf averaged): 67.7 ng·h/mL | Cmax (both sexes, human, plasma, iv, 6 mg/m2, Cohort 1, 6 mg/m^2 IV, mean, read-out: Cmax averaged): 50.9 ng/mL | Tmax (both sexes, human, plasma, iv, 6 mg/m2, Cohort 1, 6 mg/m^2 IV, mean, read-out: Tmax): 19.8 min | half-life (both sexes, human, plasma, iv, 6 mg/m2, Cohort 1, 6 mg/m^2 IV, mean, read-out: average half-life (converted)): 292 min | MRT inf (both sexes, human, plasma, iv, 6 mg/m2, Cohort 1, 6 mg/m^2 IV, r6-8=Subjects 1-3,r10=Mean,r12=Min,r13=Median,r14=Max,r16=Geometric Mean): 4.18 h | AUC(0-inf) (both sexes, human, plasma, iv, 6 mg/m2, Cohort 1, 6 mg/m^2 IV, r6-8=Subjects 1-3,r10=Mean,r12=Min,r13=Median,r14=Max,r16=Geometric Mean, read-out: AUCinf): 67.7 ng·h/mL | Cmax (both sexes, human, plasma, iv, 6 mg/m2, Cohort 1, 6 mg/m^2 IV, r6-8=Subjects 1-3,r10=Mean,r12=Min,r13=Median,r14=Max,r16=Geometric Mean, read-out: Cmax): 50.9 ng/mL | Tmax (both sexes, human, plasma, iv, 6 mg/m2, Cohort 1, 6 mg/m^2 IV, r6-8=Subjects 1-3,r10=Mean,r12=Min,r13=Median,r14=Max,r16=Geometric Mean, read-out: Tmax): 20 min | half-life (both sexes, human, plasma, iv, 6 mg/m2, Cohort 1, 6 mg/m^2 IV, r6-8=Subjects 1-3,r10=Mean,r12=Min,r13=Median,r14=Max,r16=Geometric Mean, read-out: t½ (converted)): 292 min
